Laboratory results: US12582653B2, “Method for treating idiopathic pulmonary fibrosis” (BEIJING TIDE PHARMACEUTICAL CO., LTD., priority 2020, dated 2026)

Key:
[1] = test system: BLM-induced mouse IPF model; assay: BLM-induced mouse IPF model (Example 2); format: in vivo; details: for up-regulation of TIMP-1 mRNA expression in the lung tissue induced by bleomycin / up-regulation of COL1A1 mRNA expression in the lung tissue induced by bleomycin: real-time fluorescent quantitative PCR, β-actin reference; for up-regulation of TIMP-1 mRNA expression in the lung tissue induced by bleomycin: FIG. 5A; for up-regulation of COL1A1 mRNA expression in the lung tissue induced by bleomycin: FIG. 5B
Protocol: 60 C57BL/6 mice (purchased from SLAC, Shanghai) were adaptively fed for 1 week, and 50 animals were randomly selected. 3 mg/kg of bleomycin (BLM, purchased from SIGMA, #SIGMA-P9564) was administered through intratracheal (IT) injection to the mice to establish the IPF animal model. The remaining 10 animals were injected with physiological saline at a volume same as the injected BLM, and served as the normal group (N=10). The day of the injection of bleomycin was set as day 0 (DO); on day 6, the animals were randomly divided into 4 groups according to body weight: vehicle group (N=14), compound 007 administration group (N=12), compound 128 administration group (N=12), and positive control pirfenidone (purchased from SIGMA, #SIGMA-P2116) administration group (N=12).
The animals in each group were administered on days 8-21: the animals in the normal group and vehicle group were intragastrically administered with vehicle 1 (vehicle 1: 20% PEG 400+5% Tween 80+75% ddH2O), the animals in the compound 007 administration group were intragastrically administered with compound 007 (formulated with vehicle 1), the animals in the compound 128 administration group were intragastrically administered with compound 128 (formulated with vehicle 1), and the animals in the Pirfenidone administration group were intragastrically administered with pirfenidone (vehicle 2: 0.2% Methyl cellulose+0.5% Tween 80+99.3% ddH2O).
The body weight and its changes were recorded daily (the calculation formula for the body weight change on day 21: Body weight change on day 21=Body weight on day 21—Body weight on day 0), and the results are shown in FIGS. 1A and 1B.
The animals were euthanized 2 hours after the administration on day 21, and the alveolar lavage fluid was collected for white blood cell (WBC) counting. According to FIG. 3, there was no significant difference in the total white blood cell count in the alveolar lavage fluid of the animals in each administration group.
The left lung of the animals was fixed for histopathological examination, and the Ashcroft score of lung injury was performed by Masson Trichome staining. The scoring standard is as reported in Ashcroft T et al., Journal of clinical pathology, 1988. After 100 times magnification, each successive field was scored (ranging from 0 (normal lung)) to 8 (total fibrous obliteration within the field).
The mRNA levels of lung tissue fibrosis-associated protein collagen 1A1 (COL1A1) and tissue inhibitor of metal matrix protein 1 (TIMP-1) in the lung tissue after the administration was detected by a real-time fluorescent quantitative PCR method. Specifically, the lung tissue fragments were transferred to a centrifuge tube containing 1 mL of TRIzol reagent (Invitrogen, catalog No. 15596018). The lung tissue was ground at low temperature by a tissue grinder. Total RNA in cells was extracted. TransScript All-in-One First-Strand cDNA Synthesis SuperMix for qPCR (One-Step gDNA Removal) (TransGen, catalog No. AT341-02) kit was used for reverse transcription synthesis of cDNA. The mRNA expression changes of COL1A1 and TIMP-1 in the lung tissue was detected by a fluorescence quantitative PCR method.
In the real-time fluorescent quantitative PCR method, β-actin gene was used as the internal reference gene to normalize the data. All primer sequences were from the PrimerBank website, ID No.: 34328108a1 (COL1A1 primer), 6755795a1 (TIMP-1 primer) and 6671509a1 (β-actin primer). All of the 3 primers were synthesized by Invitrogen.

[2] = test system: BLM-induced mouse IPF model; assay: BLM-induced mouse IPF model, different doses (Example 3); format: in vivo, C57BL/6J mice
Protocol: After adaptive feeding, C57BL/6J mice were randomly divided into 2 groups according to body weight: in one group, 15 animals were administered with 50 μL physiological saline through intratracheal injection; and in another group, 90 animals were administered with 50 μL bleomycin (2.5 mg/kg) through intratracheal injection to establish the IPF model. On Day 7 after the establishment of the animal model, animals were randomly grouped according to the weight change (the difference between the weight on Day 7 after the establishment of the model and the day when the model was established). Drugs were administered for 14 consecutive days from the eighth day after the establishment of the animal model. […] The bronchoalveolar lavage fluid (BALF) was collected for white blood cell count. The left lung of the animals was fixed for preparing histopathological slide. H&E and Masson Trichome staining were performed to score the degree of lung injury and fibrosis. Pulmonary fibrosis scoring standard was according to “Standardized quantification of pulmonary fibrosis in histological samples”; lung tissue injury grade score is 0-16, mainly evaluated from four aspects including inflammatory cell infiltration (0-4), hemorrhage (0-4), interstitial and alveolar edema (0-4) and alveolar septum thickness (0-4). A higher score indicate a higher degree of lung tissue injury.

Compound | survival rate of the animals at the end of the test ([1]; 100 mg/kg orally once a day, 14 days (days 8-21), FIG. 2) | collagen accumulation in lung and degree of lung fibrosis (Ashcroft score, Masson Trichome staining) ([1]; 100 mg/kg orally once a day, 14 days, FIGS. 4A and 4B) | therapeutic effect on lung fibrosis compared with pirfenidone and compound 128 ([1]; 007 and 128 at 100 mg/kg once a day, pirfenidone 90 mg/kg twice a day, FIGS. 4A and 4B) | up-regulation of TIMP-1 mRNA expression in the lung tissue induced by bleomycin [1] | up-regulation of COL1A1 mRNA expression in the lung tissue induced by bleomycin [1] | therapeutic effects compared with pirfenidone and nintedanib ([2]; 30 mpk orally once a day, pirfenidone 90 mg/kg twice a day, nintedanib 30 mg/kg once a day) | therapeutic effects compared with pirfenidone and nintedanib ([2]; 100 mpk orally once a day, pirfenidone 90 mg/kg twice a day, nintedanib 30 mg/kg once a day) | lung injury and fibrosis degree improvements compared with pirfenidone and nintedanib ([2]; 300 mpk orally once a day, pirfenidone 90 mg/kg twice a day, nintedanib 30 mg/kg once a day) | lung injury (H&E score 0-16) ([2]; compared with the model group, FIGS. 7A and 7B) | fibrosis degree (Masson Trichome score) ([2]; compared with the model group, FIGS. 8A and 8B) | infiltration of white blood cells in the lung (BALF white blood cell count) ([2]; compared with the model group, orally once a day, 14 days, FIG. 6)
Cn1c(C(=O)N2CC(F)(F)C2)cc2ccc(-c3nccc(Nc4ccc(-c5cn[nH]c5)cc4)n3)cc21 [Compound 007] | significantly higher | significantly reduced | significantly better than that of pirfenidone and compound 128 | significantly inhibited | significantly inhibited | equivalent to those of pirfenidone and nintedanib | equivalent to those of pirfenidone and nintedanib | superior to pirfenidone and nintedanib | significantly improved | significantly improved | significantly reduce
Cc1ccc(=O)n(-c2ccccc2)c1 [Pirfenidone, reference compound] | – | – | – | moderate inhibitory effect without statistic difference | significantly inhibited | – | – | – | – | – | –
